How the values were obtained:
[1] = system: HCV genotype 1a (strain H77) subgenomic replicon with NS3 resistance mutation R155K in Huh-7 cells; assay: HCV replicon RNA replication assay (NS3 protease variants), genotype 1a R155K; format: cell-based; conditions: Hepatitis C virus, Huh-7, 72 h, read-out: R155K 1a EC50 (nM)
[2] = system: HCV genotype 1b (Con-1) subgenomic replicon with NS3 resistance mutation D168V in Huh-7 cells; assay: HCV replicon RNA replication assay (NS3 protease variants), genotype 1b D168V; format: cell-based; conditions: Hepatitis C virus, Huh-7, 72 h, read-out: D168V 1b EC50 (nM)

COc1c(Cl)ccc2c(O[C@@H]3C[C@H]4C(=O)N[C@]5(C(=O)NS(=O)(=O)C6(C)CC6)C[C@H]5/C=C\CCCCC[C@H](NC(=O)c5cnn(C)n5)C(=O)N4C3)cc(OC(C)C)nc12 [Compound 1011, (2R,6S,12Z,13aS,14aR,16aS)-2-{[7-chloro-8-methoxy-2-(propan-2-yloxy)quinolin-4-yl]oxy}-N-[(1-methylcyclopropyl)sulfonyl]-6-{[(2-methyl-2H-1,2,3-triazol-4-yl)carbonyl]amino}-5,16-dioxo-1,2,3,6,7,8,9,10,11,13a,14,15,16,16a-tetradecahydrocyclopropa[e]pyrrolo[1,2-a][1,4]diazacyclopentadecine-14a(5H)-carboxamide]
EC50 [1]: 8.4 nM | EC50 [2]: 0.63 nM

COc1ccc2c(O[C@@H]3C[C@H]4C(=O)N[C@]5(C(=O)NS(=O)(=O)C6(C)CC6)C[C@H]5/C=C\CCCCC[C@H](NC(=O)N5CC(OC)C5)C(=O)N4C3)cc(OC(C)C)nc2c1C [Compound 2003, (2R,6S,12Z,13aS,14aR,16aS)-6-{[(3-methoxyazetidin-1-yl)carbonyl]amino}-2-{[7-methoxy-8-methyl-2-(propan-2-yloxy)quinolin-4-yl]oxy}-N-[(1-methylcyclopropyl)sulfonyl]-5,16-dioxo-1,2,3,6,7,8,9,10,11,13a,14,15,16,16a-tetradecahydrocyclopropa[e]pyrrolo[1,2-a][1,4]diazacyclopentadecine-14a(5H)-carboxamide]
EC50 [1]: 9.1 nM | EC50 [2]: 0.47 nM

COc1ccc2c(O[C@@H]3C[C@H]4C(=O)N[C@]5(C(=O)NS(=O)(=O)C6CC6)C[C@H]5/C=C\CCCCC[C@H](NC(=O)c5ccc(C)s5)C(=O)N4C3)cc(OC(C)C)nc2c1C [Compound 1007, (2R,6S,12Z,13aS,14aR,16aS)-N-(cyclopropylsulfonyl)-2-{[7-methoxy-8-methyl-2-(propan-2-yloxy)quinolin-4-yl]oxy}-6-{[(5-methylthiophen-2-yl)carbonyl]amino}-5,16-dioxo-1,2,3,6,7,8,9,10,11,13a,14,15,16,16a-tetradecahydrocyclopropa[e]pyrrolo[1,2-a][1,4]diazacyclopentadecine-14a(5H)-carboxamide]
EC50 [2]: 0.25 nM

COc1ccc2c(O[C@@H]3C[C@H]4C(=O)N[C@]5(C(=O)NS(=O)(=O)C6(C)CC6)C[C@H]5/C=C\CCCCC[C@H](NC(=O)c5ccn(C)n5)C(=O)N4C3)cc(OC3CC3)nc2c1C [Compound 1028, (2R,6S,12Z,13aS,14aR,16aS)-2-{[2-(cyclopropyloxy)-7-methoxy-8-methylquinolin-4-yl]oxy}-N-[(1-methylcyclopropyl)sulfonyl]-6-{[(1-methyl-1H-pyrazol-3-yl)carbonyl]amino}-5,16-dioxo-1,2,3,6,7,8,9,10,11,13a,14,15,16,16a-tetradecahydrocyclopropa[e]pyrrolo[1,2-a][1,4]diazacyclopentadecine-14a(5H)-carboxamide]
EC50 [1]: 3.7 nM | EC50 [2]: 0.37 nM

COc1ccc2c(O[C@@H]3C[C@H]4C(=O)N[C@]5(C(=O)NS(=O)(=O)C6(C)CC6)C[C@H]5/C=C\CCCCC[C@H](NC(=O)N(C)C)C(=O)N4C3)cc(OC3CC3)nc2c1C [Compound 2012, (2R,6S,12Z,13aS,14aR,16aS)-2-{[2-(cyclopropyloxy)-7-methoxy-8-methylquinolin-4-yl]oxy}-6-[(dimethylcarbamoyl)amino]-N-[(1-methylcyclopropyl)sulfonyl]-5,16-dioxo-1,2,3,6,7,8,9,10,11,13a,14,15,16,16a-tetradecahydrocyclopropa[e]pyrrolo[1,2-a][1,4]diazacyclopentadecine-14a(5H)-carboxamide]
EC50 [1]: 9.9 nM | EC50 [2]: 1.8 nM

COCCn1ccc(C(=O)N[C@H]2CCCCC/C=C\[C@@H]3C[C@@]3(C(=O)NS(=O)(=O)C3CC3)NC(=O)[C@@H]3C[C@@H](Oc4cc(OC(C)C)nc5c(C)c(OC)ccc45)CN3C2=O)n1 [Compound 1006, (2R,6S,12Z,13aS,14aR,16aS)-N-(cyclopropylsulfonyl)-6-({[1-(2-methoxyethyl)-1H-pyrazol-3-yl]carbonyl}amino)-2-{[7-methoxy-8-methyl-2-(propan-2-yloxy)quinolin-4-yl]oxy}-5,16-dioxo-1,2,3,6,7,8,9,10,11,13a,14,15,16,16a-tetradecahydrocyclopropa[e]pyrrolo[1,2-a][1,4]diazacyclopentadecine-14a(5H)-carboxamide]
EC50 [1]: 7 nM | EC50 [2]: 0.33 nM

CCOc1cc(O[C@@H]2C[C@H]3C(=O)N[C@]4(C(=O)NS(=O)(=O)C5(C)CC5)C[C@H]4/C=C\CCCCC[C@H](NC(=O)N4CCC4)C(=O)N3C2)c2ccc(OC)c(C)c2n1 [Compound 2015, (2R,6S,12Z,13aS,14aR,16aS)-6-[(azetidin-1-ylcarbonyl)amino]-2-[(2-ethoxy-7-methoxy-8-methylquinolin-4-yl)oxy]-N-[(1-methylcyclopropyl)sulfonyl]-5,16-dioxo-1,2,3,6,7,8,9,10,11,13a,14,15,16,16a-tetradecahydrocyclopropa[e]pyrrolo[1,2-a][1,4]diazacyclopentadecine-14a(5H)-carboxamide]
EC50 [1]: 5.4 nM | EC50 [2]: 0.67 nM

COc1ccc2c(O[C@@H]3C[C@H]4C(=O)N[C@]5(C(=O)NS(=O)(=O)C6(C)CC6)C[C@H]5/C=C\CCCCC[C@H](NC(=O)c5ccn(CC(F)(F)F)n5)C(=O)N4C3)cc(OC3CCC3)nc2c1C [Compound 1023, (2R,6S,12Z,13aS,14aR,16aS)-2-{[2-(cyclobutyloxy)-7-methoxy-8-methylquinolin-4-yl]oxy}-N-[(1-methylcyclopropyl)sulfonyl]-5,16-dioxo-6-({[1-(2,2,2-trifluoroethyl)-1H-pyrazol-3-yl]carbonyl}amino)-1,2,3,6,7,8,9,10,11,13a,14,15,16,16a-tetradecahydrocyclopropa[e]pyrrolo[1,2-a][1,4]diazacyclopentadecine-14a(5H)-carboxamide]
EC50 [1]: 8.2 nM | EC50 [2]: 0.25 nM

Cc1c(O)ccc2c(O[C@@H]3C[C@H]4C(=O)N[C@]5(C(=O)NS(=O)(=O)C6CC6)C[C@H]5/C=C\CCCCC[C@H](NC(=O)c5ccn(C)n5)C(=O)N4C3)cc(OC(C)C)nc12 [Compound 1037, (2R,6S,12Z,13aS,14aR,16aS)-N-(cyclopropylsulfonyl)-2-{[7-hydroxy-8-methyl-2-(propan-2-yloxy)quinolin-4-yl]oxy}-6-{[(1-methyl-1H-pyrazol-3-yl)carbonyl]amino}-5,16-dioxo-1,2,3,6,7,8,9,10,11,13a,14,15,16,16a-tetradecahydrocyclopropa[e]pyrrolo[1,2-a][1,4]diazacyclopentadecine-14a(5H)-carboxamide]
EC50 [1]: 4.3 nM | EC50 [2]: 3.7 nM

CCOc1cc(O[C@@H]2C[C@H]3C(=O)N[C@]4(C(=O)NS(=O)(=O)C5CC5)C[C@H]4/C=C\CCCCC[C@H](NC(=O)c4ccc(COC)s4)C(=O)N3C2)c2ccc(OC)c(C)c2n1 [Compound 1014, (2R,6S,12Z,13aS,14aR,16aS)-N-(cyclopropylsulfonyl)-2-[(2-ethoxy-7-methoxy-8-methylquinolin-4-yl)oxy]-6-({[5-(methoxymethyl)thiophen-2-yl]carbonyl}amino)-5,16-dioxo-1,2,3,6,7,8,9,10,11,13a,14,15,16,16a-tetradecahydrocyclopropa[e]pyrrolo[1,2-a][1,4]diazacyclopentadecine-14a(5H)-carboxamide]
EC50 [1]: 8.3 nM | EC50 [2]: 0.31 nM

COc1ccc2c(O[C@@H]3C[C@H]4C(=O)N[C@]5(C(=O)NS(=O)(=O)C6(C)CC6)C[C@H]5/C=C\CCCCC[C@H](NC(=O)N5CC(C)(O)C5)C(=O)N4C3)cc(OC(C)C)nc2c1C [Compound 2013, (2R,6S,12Z,13aS,14aR,16aS)-6-{[(3-hydroxy-3-methylazetidin-1-yl)carbonyl]amino}-2-{[7-methoxy-8-methyl-2-(propan-2-yloxy)quinolin-4-yl]oxy}-N-[(1-methylcyclopropyl)sulfonyl]-5,16-dioxo-1,2,3,6,7,8,9,10,11,13a,14,15,16,16a-tetradecahydrocyclopropa[e]pyrrolo[1,2-a][1,4]diazacyclopentadecine-14a(5H)-carboxamide]
EC50 [1]: 6.5 nM | EC50 [2]: 3.3 nM

COc1ccc2c(O[C@@H]3C[C@H]4C(=O)N[C@]5(C(=O)NS(=O)(=O)C6CC6)C[C@H]5/C=C\CCCCC[C@H](NC(=O)c5ccc(C)s5)C(=O)N4C3)cc(OCC(F)(F)F)nc2c1C [Compound 1035, (2R,6S,12Z,13aS,14aR,16aS)-N-(cyclopropylsulfonyl)-2-{[7-methoxy-8-methyl-2-(2,2,2-trifluoroethoxy)quinolin-4-yl)oxy}-6-{[(5-methylthiophen-2-yl)carbonyl]amino}-5,16-dioxo-1,2,3,6,7,8,9,10,11,13a,14,15,16,16a-tetradecahydrocyclopropa[e]pyrrolo[1,2-a][1,4]diazacyclopentadecine-14a(5H)-carboxamide]
EC50 [1]: 8.2 nM | EC50 [2]: 0.77 nM

COc1ccc2c(O[C@@H]3C[C@H]4C(=O)N[C@]5(C(=O)NS(=O)(=O)C6(C)CC6)C[C@H]5/C=C\CCCCC[C@H](NC(=O)N5CCC5)C(=O)N4C3)cc(OC(C)C)nc2c1C [Compound 2001, (2R,6S,12Z,13aS,14aR,16aS)-6-[(azetidin-1-ylcarbonyl)amino]-2-{[7-methoxy-8-methyl-2-(propan-2-yloxy)quinolin-4-yl]oxy}-N-[(1-methylcyclopropyl)sulfonyl]-5,16-dioxo-1,2,3,6,7,8,9,10,11,13a,14,15,16,16a-tetradecahydrocyclopropa[e]pyrrolo[1,2-a][1,4]diazacyclopentadecine-14a(5H)-carboxamide]
EC50 [1]: 2.3 nM | EC50 [2]: 0.48 nM

COc1ccc2c(O[C@@H]3C[C@H]4C(=O)N[C@]5(C(=O)NS(=O)(=O)C6CC6)C[C@H]5/C=C\CCCCC[C@H](NC(=O)c5cc[nH]n5)C(=O)N4C3)cc(OC(C)C)nc2c1C [Compound 1016, (2R,6S,12Z,13aS,14aR,16aS)-N-(cyclopropylsulfonyl)-2-{[7-methoxy-8-methyl-2-(propan-2-yloxy)quinolin-4-yl]oxy}-5,16-dioxo-6-[(1H-pyrazol-3-ylcarbonyl)amino]-1,2,3,6,7,8,9,10,11,13a,14,15,16,16a-tetradecahydrocyclopropa[e]pyrrolo[1,2-a][1,4]diazacyclopentadecine-14a(5H)-carboxamide]
EC50 [2]: 0.92 nM
